This note sets out measurements from patent EP0726257A1, “1-(Hetero)Arylvinyl-5H-2,3-benzodiazepine derivatives useful for the treatment of central nervous system disorders, and benzopyrylium intermediates for their preparation” (EGIS GYOGYSZERGYAR RT., priority 1995, dated 1996).

Series [1] concerns convulsions caused by 6,7,8,9-tetrahydro-5H-tetrazoloazepine [pentetrazole]. Kind of series: Inhibition of pentetrazole-induced convulsions (modified method of Benziger and Hane). Particulars: Mus musculus, po, mice, read-out: ID50 (the source's name). Type of series: in vivo. As for the experimental part: The inhibiting effect against convulsions caused by 6,7,8,9-tetrahydro-5H-tetrazoloazepine [pentetrazole] was defined by the modified method of Benziger and Hane. Groups of male and female mice belonging to the NMRI strain and weighing 20 to 25 g were used. The tonic extensor convulsions of the hind limbs caused by intraperitoneally administered 125 mg/kg of 6,7,8,9-tetrahydro-5H-tetrazoloazepine [pentetrazole] were registered on the animals of groups consisting of 6 to 12 animals. The test compounds and the carrier were administered 1 hour before administering the 6,7,8,9-tetrahydro-5H-tetrazoloazepine [pentetrazole] (Benziger, R., Hane, D.: Arch. Int. Pharmacodyn. 167, 245 [1967]).

Series [2] concerns Catalepsy in rats. Kind of series: Cataleptic effect in rats (Morpurgo). Type of series: in vivo. The note with it: p.o. As for the experimental part:
(§1) The cataleptic effect of the compounds was measured both in mice (Schlichtegroll: Arzneim. Forsch., 8, 489, [1958]) and in rats (Morpurgo: Arch. Int. Pharmacodyn., 137, 87, [1962]).

The subject of series [3] is spontaneous motor activity (SMA) in mice. Put plainly: Behavioural effects according to Irwin (decrease in spontaneous motor activity). In kind it is in vivo. The arrangement: key: ++ strong; + moderate; +- slight decrease in spon-taneous motor activity [SMA]. As for the experimental part:
(§2) The behavioural effects of 1-[2'-(substituted) vinyl]-5H-2,3-benzodiazepine derivatives according to the invention and of reference substances were measured according to the method of Irwin (Psychopharmacology, 13, 222 [1968]). The results and the acute toxicity data (dead/treated animals, shown in brackets) can be seen in the following Table II
(§3) From the above Table II it can be taken that the 1-[2'-(substituted) vinyl]-5H-2,3-benzodiazepine derivatives according to the invention considerably decrease the spontaneous motor activity (SMA) in mice after intraperitoneal or oral administration.

The test system of series [4] is rats. Put plainly: Elevated plus-maze test (Pellow), anxiolytic activity. In kind it is in vivo. Particulars: Rattus norvegicus, ip, read-out: Minimal effective dose [MED] Elevated + Maze. From the text: (§4) The anxiolytic activity was studied in rats according to the "lick-conflict" test elaborated by Vogel et al. (Psychopharmacology, 21, 1, [1971] and the elevated plus-maze test described by Pellow (Pellow, J.: Neurosci. Meth. 14, 149, [1985]). The antiaggressive effect was investigated in mice using the "fighting behaviour" method of Tedeschi (J. Pharm. Exp. Ther., 125, 28, [1959]). The minimal effective dose (MED) values and the ED50 values obtained are shown in the following Table V.
The anxiolytic activity of these compounds was investigated in the elevated plus maze test. Male rats belonging to the Sprague Dawley strain and weighing 220 to 260 g were used as test animals. The test was carried out with the aid of a wooden plus-shaped maze elevated to a height of 50 cm and containing two enclosed and two open arms (50 cm long and 15 cm wide). After 60 minutes pretreatment the animals were placed into the maze and observed for 5 minutes. The drug effect was expressed as percent increase of the time spent on the open arms and number of open arm entries. The minimum effective dose (MED) which caused a significant increase of the time spent on the open arms was calculated for every substance [Pelow, S., Chopin, P., File, S.E., Briley, M.: J. Neurosci. Methods 14, 149 to 167 [1985]).

Series [5] relates to "climbing" reaction induced by 5,6,6a,7-tetra-(hydro)-6-(methyl)-4H-dibenzo[de,g]quinoline-10,11-di-(ol){apomorphine}. Kind of series: Inhibition of apomorphine-induced climbing according to Puech et al. Type of series: in vivo. The protocol:
(§5) The potential antipsychotic activity of 1-[2'-(substituted) vinyl]-5H-2,3-benzodiazepine derivatives according to the invention and of reference substances was tested according to the method of Puech et al. (Psychopharmacology, 75, 84, [1981] by measuring their inhibiting effect on the "climbing" reaction induced by 5,6,6a,7-tetra-(hydro)-6-(methyl)-4H-dibenzo[de,g]quinoline-10,11-di-(ol){apomorphine}. The results have been expressed as ED50 values. Since the inhibition of the spontaneous motor activity (SMA) is an important characteristic of the antipsychotic drugs, the ED50 values of a number of compounds were determined according to the method of Borsy et al. (Arch. Int. Pharmacodyn., 124, 1, 196).

The test system of series [6] is rats. Kind of series: Lick-conflict test (Vogel et al.), anxiolytic activity. In kind it is in vivo. The note with it: Rattus norvegicus, po, read-out: Minimal effective dose [MED] Lick conflict.
Description: as §4

Series [7] concerns mice. Kind of series: Fighting behaviour method of Tedeschi, antiaggressive effect. Type of series: in vivo. The note with it: Mus musculus, po, read-out: ED50 Fighting behaviour.
Description: as §4

For series [8], the system named is Catalepsy in mice. Kind of series: Cataleptic effect in mice (Schlichtegroll). Type of series: in vivo. The note with it: p.o. The protocol: as §1
Series [9] relates to mice. Kind of series: Acute toxicity (dead/treated animals) in the Irwin test. In kind it is in vivo. As for the experimental part: as §2, §3
Series [10] relates to spontaneous motor activity of mice. Kind of series: Inhibition of spontaneous motor activity according to Borsy et al. In kind it is in vivo. The protocol:
as §5
The effect of the 1-[2'-(substituted) vinyl]-5H-2,3-benzodiazepine derivatives according to the invention on the spontaneous motor activity was tested according to the method of Borsy et al. Groups consisting of 3 mice were treated orally with different doses of the compounds to be tested. Then the animals were placed into a 10-channel Dews system equipment, wherein the number of interruptions of infrared beam within 30 minutes was counted. […]

In series [11] the target is homophthalazine binding site. Put plainly: Displacement of 3H-girisopam from the homophthalazine binding site in rat brain striatal membrane preparation. The note with it: displacing 5 nM 3H-girisopam. As for the experimental part: Ki values were calculated according to the following equation: Ki = IC50 :(1 +([L])/(KD)), [formula] wherein KD is the dissociation constant of the labelled ligand-receptor complex, [L] is the concentration of the labelled ligand and IC50 is the half maximal inhibitory concentration of the test compound.

The nature of series [12]: Cataleptic effect in mice (Schlichtegroll). In kind it is in vivo. Particulars: mouse, in vivo, Tables III and IV compared, read-out: dose causing catalepsy on mice relative to the spontaneous motor activity (SMA) decreasing ED50 dose. The protocol: as §1
Where [13] appears, read: po, read-out: {apomorphine} Climbing ED50.
Setting [14] is: Mus musculus, po, read-out: Spontaneous motor activity SMA ED50.
[15] abbreviates: po; read-out: {apomorphine} Climbing ED50.
[16] abbreviates: Mus musculus, po; read-out: Spontaneous motor activity SMA ED50.

The structures appear in SMILES notation. Where two headings read alike, the source gives them in different places.

Regarding `NC(=O)N1c2ccccc2C=Cc2ccccc21` [carbamazepine, 5H-dibenz[b,f]azepine-5-carboxamide], in [1], the ED50 came to 7.1 mg/kg.
Turning to `COc1cc2c(cc1OC)C(c1ccc(N)cc1)=NN=C(C)C2` [nerisopam, 1-(4'-〈amino〉-phenyl)-4-(methyl)-7,8-di-(methoxy)-5H-2,3-benzodiazepine, reference compound], the “Catalepsy in rats Minimal effective dose [MED]” value in series [2] was 60 mg/kg. In addition, in series [3] (300 mg/kg i.p.), the Behaviour entry was “+ +”. In addition, the minimal effective dose in series [4] and in series [6] was 0.3 mg/kg each time. Moreover, the ED50 in series [5] (setting [13]) was determined as 0.9 mg/kg; in series [7], 4 mg/kg; in [10] (setting [14]) it was 2.5 mg/kg. For the same compound, in series [8], the “Catalepsy in mice Minimal effective dose [MED]” value came to 40 mg/kg. In addition, the “acute toxicity (dead/treated animals)” value in series [9] (300 mg/kg i.p.) is recorded as 5/6.
With `COc1ccc(C=CC2=NN=C(C)Cc3cc(OC)c(OC)cc32)c(OC)c1` [Example 5, 1-[2',4'-Di-(methoxy)-styryl)-4-[methyl]-7,8-di-[methoxy]-5H-2,3-benzodiazepine], the Behaviour entry in [3] (300 mg/kg i.p.) and in series [3] (1000 mg/kg p.o.) was “+ +” each time. Further, the minimal effective dose in series [4] (rats) stood at 1.25 mg/kg. Further, the Ki in [11] stood at 18 nM. For the same compound, the ED50 in [7] (mice) was 15 mg/kg. Besides, the “acute toxicity (dead/treated animals)” value in series [9] (300 mg/kg i.p.) and in [9] (1000 mg/kg p.o.) was 0/5 in each case.
For `COc1cc2c(cc1OC)C(C=Cc1cc(OC)c(OC)c(OC)c1)=NN=C(C)C2` [Example 6], in [2], the “Catalepsy in rats Minimal effective dose [MED]” value is on record as more than 100 mg/kg. The Behaviour result in series [3] (300 mg/kg i.p.) and in series [3] (1000 mg/kg p.o.) was “+” throughout. In series [11], this compound had a Ki of 11 nM. For the same compound, the ED50 in series [5] (setting [15]) was determined as 15 mg/kg; in series [10] (setting [16]) it was 9.3 mg/kg. The minimal effective dose in series [6] (rats) came to 1 mg/kg. The “Catalepsy in mice Minimal effective dose [MED]” value in [8] is on record as more than 100 mg/kg. Also, the “acute toxicity (dead/treated animals)” value in [9] (300 mg/kg i.p.) and in series [9] (1000 mg/kg p.o.) was 0/6 throughout.
Turning to `CN(C)CCCN1c2ccccc2Sc2ccc(Cl)cc21` [chlorpromazine, 2-(chloro)-10-(3'-〈dimethylamino〉-propyl)-phenothiazine, reference compound], the “Catalepsy in rats Minimal effective dose [MED]” value in [2] turned out to be 20 mg/kg. Also, the ED50 in series [5] (setting [13]) was determined as 1.1 mg/kg; in series [10] (setting [14]) it was 2 mg/kg. In [12], the selectivity ratio worked out at 5. In addition, in series [8], the “Catalepsy in mice Minimal effective dose [MED]” value was 10 mg/kg.
With `COc1cc2c(cc1OC)C(c1cccc(Cl)c1)=NN=C(C)C2` [girisopam, 1-(3'-〈chloro〉-phenyl)-4-(methyl)-7,8-di-(methoxy)-5H-2,3-benzodiazepine, reference compound], the Behaviour entry in [3] (300 mg/kg i.p.) is “+-”. Besides, the minimal effective dose in series [4] came to 12.5 mg/kg; in series [6] it was 10 mg/kg. The compound further displayed a Ki in [11] of 40 nM. Also, the figures for the ED50 in [5] (setting [13]), in series [7] and in [10] (setting [14]) were 12 mg/kg, 7.7 mg/kg and 10 mg/kg, respectively. For the same compound, the “acute toxicity (dead/treated animals)” value in series [9] (300 mg/kg i.p.) is 0/6.
For the compound `COc1cc2c(cc1OC)C(C=Cc1ccc(N)cc1)=NN=C(C)C2` [Example 73, 1-[4'-(Amino)-styryl]-4-[methyl]-7,8-di-[methoxy]-5H-2,3-benzodiazepine], the minimal effective dose in [4] (rats) came out at 2.5 mg/kg. Further, in series [11], the affinity, expressed as Ki, was 11 nM. Moreover, the ED50 in series [5] (setting [15]) was found to be 1.8 mg/kg; in [7] (mice), 6.4 mg/kg.
For `CNC1=Nc2ccc(Cl)cc2C(c2ccccc2)=[N+]([O-])C1` [chlorodiazepoxide, 7-(chloro)-2-(methylamino)-5-(phenyl)-3H-1,4-benzodiazepine-4-(oxide), reference compound], the results for the minimal effective dose in series [4] and in series [6] were 2.5 mg/kg and 5 mg/kg, respectively. Further, the “{apomorphine} Climbing ED50” value in series [5] (p.o.) is “inactive”. For the same compound, the ED50 in series [7] was determined as 9.2 mg/kg; in [10] (setting [14]), 56 mg/kg.
Turning to `COc1cc2c(cc1OC)C(C=Cc1ccc(N(C)C)cc1)=NN=C(C)C2` [Example 4, 1-[4'-(Dimethylamino)-styryl)-4-[methyl]-7,8-di-[methoxy]-5H-2,3-benzodiazepine], the “Catalepsy in rats Minimal effective dose [MED]” value in series [2] was more than 100 mg/kg. For the same compound, the Behaviour result in series [3] (300 mg/kg i.p.) and in series [3] (1000 mg/kg p.o.) was “+ +” throughout. Besides, the results for the minimal effective dose in [4] (rats) and in series [6] (rats) were 5 mg/kg and 0.3 mg/kg, respectively. Moreover, the Ki in series [11] was 11 nM. Moreover, the values for the ED50 in series [5] (setting [15]), in [7] (mice) and in [10] (setting [16]) were 9.1 mg/kg, 7.4 mg/kg and 4.1 mg/kg, respectively. For the same compound, the “Catalepsy in mice Minimal effective dose [MED]” value in series [8] is listed as more than 100 mg/kg. Further, the “acute toxicity (dead/treated animals)” value in series [9] (300 mg/kg i.p.) and in series [9] (1000 mg/kg p.o.) was 1/5 each time.
